Results as given in patent publication US20050209157A1, “Short bioactive peptides and methods for their use” (priority 2001, published 2005).
Values after ≈ are worked out from the molar mass of the structure shown. Like-named read-outs stand apart in the source and are kept apart here. No end group written: not given here.

Experiments:
[1] = tested on: yeast (Saccharomyces cerevisiae); experiment: Antimicrobial assay I, yeast assay in RPMI 1640; format: cell-based; conditions: RPMI 1640 media
[2] = tested on: P. acne ATCC 6919; experiment: Antimicrobial assays II, NCCLS broth microdilution MIC; format: cell-based, Propionibacterium acnes; conditions: mean of three, in µg/mL
[3] = tested on: S. aureus (MRSA); format: cell-based, Staphylococcus aureus; conditions: mean of three; 16 to 20 hours at 35° C.
[4] = tested on: MCF7; experiment: Anti-cancer assay, MTT, LD50; format: cell-based; conditions: MCF7 breast adenocarcinoma line, MTT, 24 hours with peptide
Description: (§1) Numbers are LD50 values (μg/mL).

[5] = tested on: HeLaS3; experiment: Anti-cancer assay, MTT, LD50; format: cell-based; conditions: 24 hours with peptide, cervical carcinoma
Description: as §1

[6] = tested on: PC3; experiment: Anti-cancer assay, MTT, LD50; format: cell-based; conditions: 24 hours with peptide, prostate adenocarcinoma
Description: as §1

[7] = tested on: BMKC; experiment: Anti-cancer assay, MTT, LD50; format: cell-based; conditions: BMKC cloned melanoma line, 24 hours with peptide
Description: as §1

[8] = tested on: SW480; experiment: Anti-cancer assay, MTT, LD50; format: cell-based; conditions: SW480 colon adenocarcinoma line, 24 hours with peptide
Description: as §1

[9] = tested on: H1299; experiment: Anti-cancer assay, MTT, LD50; format: cell-based; conditions: 24 hours with peptide, lung large cell carcinoma
Description: as §1

[10] = tested on: S. pyogenes M76; experiment: Antimicrobial assays II, NCCLS broth microdilution MIC; format: cell-based, Streptococcus pyogenes; conditions: mean of three; 16 to 20 hours at 35° C.
[11] = tested on: Staphylococcus aureus ATCC 6538; experiment: Antimicrobial assay I, MIC by OD measurement; format: cell-based; conditions: 37° C. for 24 hours, absorbance 620 nm
[12] = tested on: Pseudomonas aeruginosa ATCC 9027; experiment: Antimicrobial assay I, MIC by OD measurement; format: cell-based; conditions: 37° C. for 24 hours, absorbance 620 nm
[13] = tested on: P. aeruginosa; format: cell-based, Pseudomonas aeruginosa; conditions: P. aeruginosa H744; MIC of nalidixic acid with peptide at ¼ MIC
In short: (§2)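 Efflux-mutant strains were tested with two-fold serial dilutions of chloramphenicol or nalidixic acid, alone and with peptide held at ¼ of its own MIC.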

[14] = tested on: P. aeruginosa H774; format: cell-based, Pseudomonas aeruginosa; conditions: P. aeruginosa H744; nalidixic acid + peptide at ¼ MIC; 0.5 or less = synergy
In short: as §2

[15] = tested on: P. aeruginosa H374; format: cell-based, Pseudomonas aeruginosa; conditions: for FIC Index: 0.5 or less = synergy
In short: as §2

[16] = in vitro; format: cell-based, human; conditions: human, human red blood cells
[17] = tested on: Staph. aureus 29213; experiment: microbe, parasite or virus in culture; conditions: for MBC: Staphylococcus aureus, 29213, read-out: MBC, Without peptide; for MBC, With 5 μg/mL peptide: with 5 μg/mL peptide Shiva-10
Description: This experiment determined the peptide MBC in the absence of the antimicrobial agent, or in the presence of the indicated concentration of antimicrobial agent

[18] = in vitro; conditions: human, WI38 normal lung fibroblast cells
[19] = tested on: S. pneumoniae C718; experiment: Antimicrobial assays II, NCCLS broth microdilution MIC; format: cell-based, Streptococcus pneumoniae; conditions: mean of three
[20] = tested on: S. pyogenes ATCC19615; experiment: as above; format: cell-based, Streptococcus pyogenes; conditions: mean of three, in µg/mL
[21] = tested on: S. epidermidis C621; format: cell-based, Staphylococcus epidermidis; conditions: mean of three; 16 to 20 hours at 35° C.
[22] = tested on: WI38; conditions: MTT, 24 hours with peptide; normal fibroblast line
[23] = tested on: Escherichia coli 25922; experiment: microbe, parasite or virus in culture
Description: Synergy between peptide Shiva-10 (SEQ ID NO:4) and various antimicrobial agents was investigated against Escherichia coli 25922.
Synergy between tetracycline and various peptides was investigated against Escherichia coli 25922 MBC. […] When combined with the peptides, the concentration of tetracycline was held at 1.5 ppm.

[24] = tested on: Pseudomonas aeruginosa ATCC 27853; experiment: Antimicrobial assay I, modified protocol (tryptic soy broth), MBC; conditions: minimum bactericidal concentration, Table 4
[25] = tested on: cancer cell lines; experiment: Anti-cancer assays, MTT, summary over the cancer cell lines; format: cell-based; conditions: X = preferred
[26] = tested on: human leukocyte (WBC) cells; experiment: Stimulation and proliferation of leukocytes, Alamar Blue; format: cell-based; conditions: 48 hours
[27] = tested on: human red blood cells (RBC); experiment: in vitro; format: cell-based; conditions: human red blood cells
[28] = tested on: Escherichia coli ATCC 25922; experiment: Antimicrobial assay I, modified protocol (tryptic soy broth), MBC; conditions: minimum bactericidal concentration, Table 4
[29] = tested on: Candida albicans ATCC 10231; experiment: Antimicrobial assay I, modified protocol (tryptic soy broth), MFC; conditions: minimum fungicidal concentration, Table 4
Description: The preparation of all media, stock solutions, and dilutions took place in a laminar flow hood to prevent contamination. Bacterial cells were freshly grown on antibiotic medium 2 agar slants (pH 7.0 at 25° C.). Bacteria were suspended and diluted in antibiotic medium 3 to about 10^4 cfu/ml and used as the inoculum. Sample solutions (100 μl/well) were added to plates according to the plate layout. Inoculum (100 μl/well) was added to achieve a final concentration of 5×10^3 cfu/ml. Negative controls received 100 μl saline and 100 μl growth medium. Positive controls received 100 μl saline and 100 μl inoculum. Bacterial plates were incubated at 37° C. for 24 hours.
However, the data for Table 4 were obtained with a modified protocol wherein the medium was tryptic soy broth, inocolum strength was approximately 10^4 CFU per ml, and values determined were minimum bactericidal concentrations (MBC) or minimum fungicidal concentrations (MFC).
MBC or MFC values are in μg/mL. E. coli is Escherichia coli ATCC accession number 25922; P. aerug is Pseudomonas aeruginosa ATCC accession number 27853, S. aur. is Stapholococcus aureus ATCC accession number 25923; Candida is Candida albicans ATCC accession number 10231.

[30] = tested on: fungal; experiment: Presently preferred antifungal peptides, selected from the MIC/MBC data; format: cell-based; conditions: X = preferred
Description: The peptide's “length” is the number of amino acid residues in the sequence.

[31] = tested on: human fibroblast cells (WI38); experiment: Stimulation and proliferation of fibroblasts, CyQuant; format: cell-based; conditions: for Peptide treated cell activity Stimulation relative to control: 48 hrs, 2.0% FBS
Description: Procedure: Different cell lines were maintained with different medium according to the ATCC. […] The cell suspension was centrifuged for 10 minutes at 100 rpm. The supernatant was removed and discarded without disturbing the cell pellet. A concentrated cell suspension was prepared in 1.0 ml of medium to obtain a density of about 10^5 to 10^6 cells/ml. The actual cell density was determined by counting the cells using a hemocytometer with the Trypan Blue method. Cell numbers were adjusted to obtain equal number of cells per 200 μl volume. Cells were plated with 0% FBS, 2% FBS, 3% FBS and 5% FBS. The plates were incubated at 37° C. for a time sufficient to allow the cells to attach. For long-term proliferation studies, 100 μl of medium was removed from each well each day and replaced with fresh medium.
At the desired time, the medium was removed from the adherent cells in a 96 well plate. These cells were already treated with test agents. The cells were frozen in the plate at −70° C. for 30 minutes. The cells were thawed at room temperature. CyQuant GR dry/Cell Lysis Buffer (200 μl) was added to each sample cell. The cells were incubated at room temperature for 15 minutes while protected from the light. Fluorescence was measured using fmax at 485-538 nm.
The above CyQuant protocol was used to examine possible peptide stimulation and/or proliferation of fibroblasts. […] This is shown by the addition of Fetal Bovine Serum (FBS) to the medium. […] Control cells and peptide treated cells are with medium and FBS as indicated.

[32] = tested on: Stapholococcus aureus ATCC 25923; experiment: Antimicrobial assay I, modified protocol (tryptic soy broth), MBC; conditions: minimum bactericidal concentration, Table 4
[33] = pH 7, hemolytic assay, concentration at 50% hemolysis, 1 hour at 37° C., read-out: LD50
[34] = Escherichia coli, 25922, read-out: MBC, Without peptide

In the case of `CC(C)C[C@H](NC(=O)[C@H](C)NC(=O)[C@H](CC(C)C)NC(=O)[C@H](CCCCN)NC(=O)[C@H](C)NC(=O)[C@H](CC(C)C)NC(=O)[C@H](CCCCN)NC(=O)[C@H](CCCCN)NC(=O)[C@H](C)NC(=O)[C@H](CC(C)C)NC(=O)[C@H](CCCCN)NC(=O)[C@H](C)NC(=O)[C@H](CC(C)C)NC(=O)[C@H](CCCCN)NC(=O)[C@H](CCCCN)NC(=O)[C@H](C)NC(=O)[C@@H](N)Cc1ccccc1)C(N)=O` [P35], the “yeast (MIC or MFC)” value [1] is reported as 25 µg/mL, the “P. acne MIC” value [2] is reported as 4 and the S. aureus (MRSA) MIC [3] is reported as 8 µg/mL. For the same compound, the “LD50 MCF7” value [4] was 9 µg/mL, the “HeLaS3 LD50” value [5] was 27 µg/mL and the “PC3 LD50” value [6] was 5 µg/mL. The “LD50 BMKC” value [7] was 7 µg/mL, the “LD50 SW480” value [8] was 14 µg/mL and the “H1299 LD50” value [9] was 16 µg/mL. The S. pyogenes M76 MIC [10] was 4 µg/mL, the “staph6538 (MIC)” value [11] was 5 µg/mL and the “paerug9027 (MIC)” value [12] was 200 µg/mL. For the same compound, the “MIC Nal-comb.” value [13] was 624 µg/mL, the “FIC Index” value [14] was 1.25 and the “MIC Cm-comb.” value ([15]; MIC of chloramphenicol with peptide at ¼ MIC) was 16 µg/mL. For the same compound, the “MIC Nal-comb.” value ([15]; MIC of nalidixic acid with peptide at ¼ MIC) was 10,000 μg/ml, the “FIC Index” value ([15]; chloramphenicol + peptide at ¼ MIC) was 1.25 and the “FIC Index” value ([15]; nalidixic acid + peptide at ¼ MIC, FIC=0.25+MIC comb/MIC alone) was 2.25. It also gave an HC50 at 1 h [16, 33] of 200 µg/mL, an MBC of peptide ([17]; in the presence of Cefoperazone ([…])) of 20 µg/mL and an MBC of peptide ([17]; in the presence of Vancomycin (1 ppm)) of 32 µg/mL. For the same compound, the MBC of peptide ([17]; peptide alone) was 50 µg/mL, the CC50 at 24 h ([18]; LD50 WI38, WI38 normal lung fibroblast line, MTT, 24 hours with peptide) was 8 µg/mL (≈ 4.31 µM) and the S. pneumoniae MIC [19] was 4 µg/mL. For the same compound, the “S. pyogenes MIC” value [20] was 16, the S. epidermidis C621 MIC [21] was 4 µg/mL and the “WI38 LD50” value [22] was 8 µg/mL.
In the case of `CC1(C)S[C@@H]2[C@H](NC(=O)[C@H](C(=O)O)c3ccsc3)C(=O)N2[C@H]1C(=O)O` [Ticarcillin], the MBC [23, 34] is reported as 100 µg/mL, the “MBC, With peptide” value ([23]; with 15 μg/mL peptide Shiva-10) is reported as 50 µg/mL and the MBC [17] is reported as 25 µg/mL (≈ 65 µM). For the same compound, the “MBC, With 5 μg/mL peptide” value [17] was 15 µg/mL (≈ 39 µM).
For “FALALKALKKALKKLKKALKKAL-NH2 [compound 2]”, the “MBC P. aerug A.27853” value [24] was 10 µg/mL, the “Anti-cancer (preferred peptide)” value [25] was “X (Preferred anticancer peptides can be selected as having LD50 values of less than or equal to about 25 μg/ml)” and the “Peptide treated cell activity Percent stimulation relative to control” value ([26]; 0.1 ug/ml) was 117%. The “Peptide treated cell activity Percent stimulation relative to control” value ([26]; 1 ug/ml) was 118%, the “Peptide treated cell activity Percent stimulation relative to control” value ([26]; 10 ug/ml) was 119% and the “Peptide treated cell activity Percent stimulation relative to control” value ([26]; 100 ug/ml) was 121%. The “Peptide treated cell activity Percent stimulation relative to control” value ([26]; 500 ug/ml) was 119%, the HC50 at 1 h ([16]; pH 7, Table 26, valine substitution, read-out: Hemolysis RBC LD50) was 12 µg/mL and the “Peptide toxicity RBC LD/50” value [27] was 30. The CC50 at 24 h ([18]; Peptide toxicity WI-38 LD/50, human fibroblast cells) was 66 µg/mL, the CC50 at 24 h ([18]; WI-38 LD50, Table 26, valine substitution) was 66 µg/mL and the “MBC E. coli A.25922” value [28] was 25 µg/mL. For the same compound, the “MFC Candida A.10231” value [29] was greater than 50 µg/mL, the “Anti-fungal (preferred peptide)” value [30] was “X (Preferred antifungal peptides can be selected as having MIC or MBC values of less than or equal to about 25 μg/ml)” and the “percent cell viability above or below control” value ([31]; 0.1 μg/ml, 0% FBS) was −27%. For the same compound, the “Peptide treated cell activity Stimulation relative to control” value ([31]; 0.1 μg/ml) was 125%, the “percent cell viability above or below control” value ([31]; 0.1 μg/ml, […] FBS) was 26% and the “percent cell viability above or below control” value ([31]; 1 μg/ml, 0% FBS) was −3%. The “Peptide treated cell activity Stimulation relative to control” value ([31]; 1 μg/ml) was 156%, the “percent cell viability above or below control” value ([31]; 1 μg/ml, […] FBS) was 57% and the “percent cell viability above or below control” value ([31]; 10 μg/ml, 0% FBS) was 27%. For the same compound, the “Peptide treated cell activity Stimulation relative to control” value ([31]; 10 μg/ml) was 122%, the “percent cell viability above or below control” value ([31]; 10 μg/ml, […] FBS) was 23% and the “percent cell viability above or below control” value ([31]; 100 μg/ml, 0% FBS) was −82%. For the same compound, the “Peptide treated cell activity Stimulation relative to control” value ([31]; 100 μg/ml) was 35%, the “percent cell viability above or below control” value ([31]; 100 μg/ml, […] FBS) was −66% and the “MBC S. aur A.25923” value [32] was 25 µg/mL.
In the case of `CCN1CCN(C(=O)N[C@@H](C(=O)N[C@@H]2C(=O)N3C(C(=O)O)=C(CSc4nnnn4C)CS[C@H]23)c2ccc(O)cc2)C(=O)C1=O` [Cefoperazone], the MBC [23, 34] is reported as 150 µg/mL, the “MBC, With peptide” value ([23]; with 15 μg/mL peptide Shiva-10) is reported as 2.5 µg/mL and the MBC [17] is reported as 10 µg/mL (≈ 15.5 µM). The “MBC, With 5 μg/mL peptide” value [17] was 2.5 µg/mL (≈ 3.87 µM).
For `CN(C)[C@@H]1C(O)=C(C(N)=O)C(=O)[C@@]2(O)C(O)=C3C(=O)c4c(O)cccc4[C@@](C)(O)[C@H]3C[C@@H]12` [Tetracycline], the MBC ([23]; Escherichia coli, 25922, read-out: MBC of tetracycline) was 10 µg/mL, the MBC [23, 34] was 10 µg/mL and the “MBC, With peptide” value ([23]; with 5 μg/mL peptide Shiva-10) was 2.5 µg/mL. The MBC [17] was 10 µg/mL (≈ 22.5 µM) and the “MBC, With 5 μg/mL peptide” value [17] was 1 µg/mL (≈ 2.25 µM).
For `CC(C)C[C@H](NC(=O)[C@H](C)NC(=O)[C@H](CC(C)C)NC(=O)[C@H](C)NC(=O)[C@H](CC(C)C)NC(=O)[C@H](CCCCN)NC(=O)[C@H](C)NC(=O)[C@H](CC(C)C)NC(=O)[C@H](CCCCN)NC(=O)[C@H](CCCCN)NC(=O)[C@H](C)NC(=O)[C@H](CC(C)C)NC(=O)[C@H](CCCCN)NC(=O)[C@H](CCCCN)NC(=O)[C@H](CC(C)C)NC(=O)[C@H](CCCCN)NC(=O)[C@H](CCCCN)NC(=O)[C@H](C)NC(=O)[C@H](CC(C)C)NC(=O)[C@H](CCCCN)NC(=O)[C@H](CCCCN)NC(=O)[C@H](C)NC(=O)[C@@H](N)Cc1ccccc1)C(N)=O` [P11, reference compound], the “MBC, Without peptide” value ([23]; agent alone) was 50 µg/mL, the HC50 at 1 h [16, 33] was 76 µg/mL and the “MBC, Without peptide” value ([17]; agent alone) was 200 µg/mL (≈ 78.9 µM).
